Results on six molecules are retold here after patent publication US20220000765A1, “METHODS AND COMPOSITION FOR TREATING MICROBIAL INFECTIONS” (UNIVERSITY OF LOUISVILLE RESEARCH FOUNDATION, INC., priority 2018, published 2022).

Read-outs that look alike come from different tables or passages of the source.

In series [1] the test system is HIV-1. The settings on record: for interaction with Q-GRFT against HIV-1: in free and encapsulated forms.
Series [2] deals with HSV-2. The series is described as follows: In vitro HSV-2 plaque assay in Vero E6 cells (GRFT fibers, Example 5). Particulars: eluates of 10% w/w GRFT fibers; 1 hr prior to infection. Type of series: cell-based, HSV-2 (4674). The protocol:
To conduct HSV-2 plaque assays, Vero E6 cells and HSV-2 (4674) were kindly provided by Dr. Kenneth Palmer from the University of Louisville.
HSV-2 plaque assays were conducted to evaluate the in vitro efficacy of 10% w/w GRFT fibers against HSV-2 infection as previously described. Briefly, Vero E6 cells were seeded at 600,000 cells/well in a 6-well flat bottom plate (50% confluence) and grown for 24 hr to confluence. Prior to cell infection, 10% w/w GRFT fibers (30 mg) were dissolved in 20 mL complete plating media (1% FBS MEM). Once the cells were fully confluent, the growth media was removed and replaced with 2 mL of GRFT fiber eluate dilutions, followed by HSV-2 infection (3,000 PFU per well) 1 hr later. Free GRFT (2,000 μg/mL), corresponding to the concentration necessary to provide complete HSV-2 inhibition, was used as a positive control for inhibition, in addition to untreated/uninfected cells. Untreated/infected cells, were used as a negative control of inhibition.
Subsequent to HSV-2 infection, plates were incubated for 48 hr at 37° C., all media was removed, and cells were fixed with 1.5 mL methanol for 10 min. […] Finally, plates were washed with Milli-Q water, and plaques were counted after drying. […] Samples were analyzed in triplicate, and GraphPad Prism software was used to determine and compare the IC50 values of GRFT fibers to free GRFT.

The subject of series [3] is HSV-2. Put plainly: In vivo HSV-2 efficacy, murine model of lethal HSV-2 infection (GRFT NPs and NP-EFs, Example 4). On the set-up: species or system BALB/c mice. The protocol: All in vivo experiments were approved by the University of Louisville's Institutional Animal Care and Use Committee (IACUC-17135) prior to testing. […] For these studies, mice were subcutaneously injected with 3 mg Depo-Provera (Revive, Madison, N.J.) 5 days prior to vehicle administration to induce the diestrous stage of their cycle. All materials administered to mice were UV-sterilized for 15 s prior to use. […] Untreated/uninfected mice and mice treated with 20 μg free GRFT (20 μL of 1,000 μg/mL) served as negative controls of infection, while untreated/infected mice served as a positive control for infection. Blank mPEG-PLGA nanoparticles were administered as an additional control group in efficacy studies.

Series [4] relates to HSV-2. Put plainly: In vivo efficacy against a lethal dose of HSV-2 infection (GRFT fibers, Example 5). On the set-up: species or system BALB/c mice. The protocol:
All in vivo experimental procedures were approved by the University of Louisville's Institutional Animal Care and Use Committee (IACUC 17135) prior to testing. All animal studies were conducted using 5-week-old female BALB/c mice (Jackson Laboratory, Bar Harbor, Me.) to evaluate the efficacy and safety of GRFT fibers. For efficacy studies, mice were administered either blank or GRFT fibers (5 mg) that were UV-sterilized for 15 s. Mice were subcutaneously injected with 3 mg Depo-Provera (Revive, Madison, N.J.) to induce the diestrous stage of their cycle, 5 days prior to fiber administration.
To determine the efficacy of GRFT fibers against HSV-2 infection, mice were administered a single dose of either GRFT PEO, PVA, or PVP fibers, or control groups (n=20). Twenty-four hours after fiber administration, mice were challenged with HSV-2 (20 μL, LD90 5,000 PFU). Untreated/infected mice were used as positive controls for infection, while untreated/uninfected mice and infected mice treated with free GRFT (20 μL, of 1,000 μg/mL, 20 μg GRFT) served as negative controls. […] Blank PEO fibers were administered as an additional control group in efficacy studies. Mice were monitored daily for 14 days after HSV-2 challenge using an established 4-point scale to monitor the progression of viral infection. Each day, mice were weighed and examined for signs of neurological and epithelial damage. […]

The test system of series [5] is HIV-1. Particulars: NPs or eluates from 20% w/w NP-EF composites.
Method: TZM-bl cells, obtained from the National Institutes of Health AIDS Research and Reference Reagent Program (ARRRP), are engineered HeLa cells that express CD4, CCR5 and CXCR4 receptors, and were used to assess in vitro HIV-1 infectivity. TZM-bl cells are highly permissive to infection by most HIV-1 and pseudovirus strains, and contain HIV-activated Tat-driven luciferase, allowing for precise quantification of infection. TZM-bl cells were cultured in Dulbecco's Modified Eagle medium (DMEM) containing 10% fetal bovine serum (FBS), 25 mM HEPES, and 50 μg/mL gentamicin (Thermo Fisher). […]
HIV inhibition was determined as a function of reduction in luciferase reporter gene expression after a single round of infection with pseudotyped HIV in TZM-bl cells. The optimal virus dilution (1:16) was established to yield ≥96,800 relative luminescence units (RLUs). […]
After 48 hr, 100 μL of culture medium was removed from each well. Luminescence was measured using the Bright-Glo luciferase assay (Promega Corporation, Madison, Wis.) by adding 100 μL Bright-Glo reagent solution to each well for 5 min and recording relative luminescence units (RLUs, Synergy HT reader, BioTek). […]
Series [6] has as its system HIV-1. The settings on record: eluates of 1% w/w GRFT fibers.
From the text: TZM-bl cells, obtained from the National Institutes of Health (NIH) AIDS Research and Reference Reagent Program (ARRRP), were used to assess in vitro HIV-1 infectivity. TZM-bl cells are engineered HeLa cells that express CD4, CCR5 and CXCR4 receptors and contain a Tat-driven luciferase gene, which is activated by HIV-1 infection and permits sensitive and accurate measurements of infection. TZM-bl cells are highly permissive to infection by most strains of HIV and molecularly cloned Env-pseudotyped viruses. TZM-bl cells were cultured in DMEM containing 10% FBS, 25 mM HEPES, and 50 μg/mL gentamicin. […]
The antiviral activity of GRFT fibers against HIV-1 was measured using an in vitro HIV-1 pseudovirus inhibition assay. As previously described, HIV-1 inhibition was determined as a function of reduction in luciferase reporter gene expression after a single round of infection in TZM-bl cells. The optimal virus dilution was established prior to the experiments to yield 100,000 relative luminescence units (RLUs). […]
After 48 hr, 100 μL, culture medium was carefully removed from each well. Luminescence was measured using the Bright-Glo luciferase assay system (Promega Corporation, Madison, Wis.) by adding 100 μL, Bright-Glo reagent solution to each well for 5 min. Plates were read via luminescence by the Synergy HT reader (BioTek). […]
For series [7] the following is noted: Met78Gln variant versus wild-type GRFT; cited from earlier work.
Another series deals with Gardnerella vaginalis. The series is described as follows: Probiotic - Gv liquid co-culture. Type of series: cell-based. Particulars: Example 2; free probiotic (10e7 or 10e8), prebiotic and Gv; plated after 4 and 24 hours. The protocol: Bacteria loading, viability, and stability were tested by CFU count, BacLight live/dead assay, and fluorescence microscopy. La viability and stability were evaluated at −20° C., 4° C., and 25° C. by counting colony forming units (CFUs). To determine the ability of probiotic EFs to decrease Gv viability, a La EF-Gv co-culture was assessed.
Bacteria were co-cultured in media using the following experimental design (FIG. 16A). The probiotic (L. acidophilus (La) or L. crispatus (Lcr)), the prebiotic, and the Gv were combined for bacterial cell co-culture experiments. Each tube was serially diluted and plated after 4 (FIG. 16B) and 24 (FIG. 16C) hours growth.

For `Cc1cc(C)c(Nc2ccnc(Nc3ccc(C#N)cc3)n2)c(C)c1` [DAP, Dapivirine], the “interaction with Q-GRFT against HIV-1” value in the series with HIV-1 [1] is on record as “synergistic interactions”.

As for `Cc1nnc(C(=O)NC(C)(C)c2nc(C(=O)NCc3ccc(F)cc3)c(O)c(=O)n2C)o1` [RAL, Raltegravir], the “interaction with Q-GRFT against HIV-1” value in the series on HIV-1 [1] is “synergistic interactions”.

As for `C[C@H](Cn1cnc2c(N)ncnc21)OCP(=O)(O)O` [TFV, Tenofovir], the “interaction with Q-GRFT against HIV-1” value in the series with HIV-1 [1] is reported as “synergistic interactions”.

Consider Griffithsin [free GRFT], for which the “1 Hr HSV-2 IC50” value in the series on HSV-2 [2] came to 25.5 ± 0.5 µg/mL. The molecule also displayed a survivability in the series on HSV-2 [3] (intravaginal, single HSV-2 challenge LD90 5,000 PFU 24 hr later, 14 d post-infection, n=20) of 85%. Besides, in the series on HSV-2 [3] (treated mice that became symptomatic, relative to untreated/infected control group), the “onset of symptoms and progression of infection” value was “delayed onset of symptoms and a more gradual progression of infection”. For the same molecule, the progression of infection entry in the series with HSV-2 [4] (mice that exhibited symptoms, relative to untreated/infected mice) is listed as “decreased progression of infection”. Besides, in the series with HSV-2 [4] (of 20 mice), the “infected mice whose initial symptoms disappeared near the end of the study” value is reported as 1 of 20. The “IC50 against HIV-1” value in the series with HIV-1 [5] (administered to TZM-bl cells 1 hr prior to infection) was 0.0215 ± 0.0053 µg/mL; in the series on HIV-1 [5] (administered to TZM-bl cells 24 hr prior to infection), 0.0208 ± 0.0067 µg/mL. In the series on HIV-1 [6] (1 hr prior to infection), the “1 Hr HIV-1 IC50” value came out at 0.0241 ± 0.0156 µg/mL. In addition, the “24 Hr HIV-1 IC50” value with HIV-1 [6] (24 hr prior to infection) was 0.0228 ± 0.0122 µg/mL.

For “free Q-GRFT: oxidation-resistant variant of GRFT in which the Met at position 78 was replaced by a Gln”, the “fold lowering of IC50 of free Q-GRFT” value in the series on HIV-1 [1] (in combination with the free ARVs (TFV, RAL, DAP)) is “up to 6 fold”. Besides, the susceptibility to oxidation entry in series [7] is given as “no susceptibility to oxidation”.

Take inulin: the “effect on Gv growth in probiotic-prebiotic-Gv co-culture” value in the series with Gardnerella vaginalis is recorded as “increase of Gv growth”.
